How the values were obtained:
[1] = system: PAE 27853; experiment: MIC, broth microdilution (CLSI), substance alone or ATB combined with compound at 4 or 8 μg/mL; format: cell-based, P. aeruginosa; settings: Pseudomonas aeruginosa, substance alone
In short: (§1)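 CLSI broth microdilution in cation-adjusted Mueller-Hinton broth, 5·10^5 CFU/mL log-phase inoculum, 16-20 h at 35 °C in ambient air. Fosfomycin assays supplemented with 25 μg/ml glucose-6-phosphate.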

[2] = system: ABA 107292; experiment: as above; format: cell-based, A. baumannii; settings: Acinetobacter baumannii, substance alone, read-out: MIC
In short: as §1

[3] = system: ABA 19606; experiment: as above; format: cell-based, A. baumannii; settings: Acinetobacter baumannii, substance alone, read-out: MIC
In short: as §1

[4] = system: ABA UFR151; experiment: as above; format: cell-based, A. baumannii; settings: Acinetobacter baumannii, substance alone, read-out: MIC
In short: as §1

[5] = system: ABA UFR153; experiment: as above; format: cell-based, A. baumannii; settings: Acinetobacter baumannii, substance alone, read-out: MIC
In short: as §1

[6] = system: ABA UFR154; experiment: as above; format: cell-based, A. baumannii; settings: Acinetobacter baumannii, substance alone, read-out: MIC
In short: as §1

[7] = system: ABA UFR155; experiment: as above; format: cell-based, A. baumannii; settings: Acinetobacter baumannii, substance alone, read-out: MIC
In short: as §1

[8] = system: ABA UFR157; experiment: as above; format: cell-based, A. baumannii; settings: Acinetobacter baumannii, substance alone, read-out: MIC
In short: as §1

[9] = system: ABA UFR158; experiment: as above; format: cell-based, A. baumannii; settings: Acinetobacter baumannii, substance alone, read-out: MIC
In short: as §1

[10] = system: ABA UFR159; experiment: as above; format: cell-based, A. baumannii; settings: Acinetobacter baumannii, substance alone, read-out: MIC
In short: as §1

[11] = system: ABA UFR160; experiment: as above; format: cell-based, A. baumannii; settings: Acinetobacter baumannii, substance alone, read-out: MIC
In short: as §1

[12] = system: ABA UFR161; experiment: as above; format: cell-based, A. baumannii; settings: Acinetobacter baumannii, substance alone, read-out: MIC
In short: as §1

[13] = system: PAE UFR48; experiment: Fractional Inhibitory Concentration Index, checkerboard assay; format: cell-based, P. aeruginosa
In short: (§2)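 Two-agent checkerboards of 2-fold dilutions in ca-MHB were inoculated at 5.10^5 CFU/mL and incubated 18 h at 35 °C in air, in duplicate; fosfomycin wells also held 25 μg/ml glucose-6-phosphate. FICI calculated as the sum of combination/alone MIC ratios for each drug.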

[14] = system: PAE UFR90; experiment: as above; format: cell-based, P. aeruginosa
In short: as §2

[15] = system: KPN UFR68; experiment: as above; format: cell-based, K. pneumoniae
In short: as §2

[16] = system: ECL P99; experiment: as above; format: cell-based, E. cloacae
In short: as §2

[17] = system: ECO 190317; experiment: as above; format: cell-based, E. coli
In short: as §2

SMILES: NC[C@H]1C=C(c2cnco2)[C@@H]2CN1C(=O)N2OS(=O)(=O)[O-].O=C(O)C(F)(F)F.[Na+] (relative stereo) [Example 1, sodium and 2,2,2-trifluoroacetate [trans-2-(azaniumylmethyl)-4-oxazol-5-yl-7-oxo-1,6-diazabicyclo[3.2.1]oct-3-en-6-yl] sulfate]
- MIC [1]: 1 µg/mL
- MIC [2]: > 32 µg/mL
- MIC [3]: > 32 µg/mL
- MIC [4]: > 32 µg/mL
- MIC [5]: > 32 µg/mL
- MIC [6]: > 32 µg/mL
- MIC [7]: > 32 µg/mL
- MIC [8]: > 32 µg/mL
- MIC [9]: > 32 µg/mL
- MIC [10]: > 32 µg/mL
- MIC [11]: > 32 µg/mL
- MIC [12]: > 32 µg/mL
- FIC index min ([13]; compound +ATM): 0.25
- FIC index min ([13]; compound +FEP): 0.53
- FIC index min ([13]; compound +FOS): 0.62
- FIC index min ([13]; compound +MEM): 0.27
- FIC index min ([13]; compound +PIP): 0.27
- FIC index min ([14]; compound +ATM): 0.54
- FIC index min ([14]; compound +FEP): 0.50
- FIC index min ([14]; compound +FOS): 1.0
- FIC index min ([14]; compound +MEM): 0.75
- FIC index min ([14]; compound +PIP): 0.88
- FIC index min ([15]; compound +ATM): ≤0.023
- FIC index min ([15]; compound +FEP): ≤0.0088
- FIC index min ([15]; compound +FOS): ≤0.126
- FIC index min ([15]; compound +MEM): ≤0.0098
- FIC index min ([15]; compound +PIP): ≤0.012
- FIC index min ([16]; compound +ATM): 0.50
- FIC index min ([16]; compound +FEP): 0.47
- FIC index min ([16]; compound +FOS): ≤0.3125
- FIC index min ([16]; compound +MEM): 0.56
- FIC index min ([16]; compound +PIP): 0.50
- FIC index min ([17]; compound +ATM): 0.51
- FIC index min ([17]; compound +FEP): 0.49
- FIC index min ([17]; compound +FOS): 0.37
- FIC index min ([17]; compound +MEM): 0.63
- FIC index min ([17]; compound +PIP): ≤0.38

From patent publication US20200024278A1, “COMPOSITION COMPRISING ANTIBIOTIC COMPOUND AND AN HETEROCYCLIC COMPOUND AND THEIR USE IN PREVENTING OR TREATING BACTERIAL INFECTIONS” (MUTABILIS, priority 2016, published 2020)
